Earlier results, collected in US20070117764A1, “Compositions comprising macrolide t-cell immunomodulators or immunosuppressants in combination with antibacterials” (priority 2003, published 2007).

Test system: allogeneic kidney transplantation
Conditions: rat, oral administration, suppression of systemic immune response

C=CC[C@@H]1/C=C(\C)C[C@H](C)C[C@H](OC)[C@H]2O[C@@](O)(C(=O)C(=O)N3CCCC[C@H]3C(=O)O[C@H](/C(C)=C/[C@@H]3CC[C@@H](O)[C@H](OC)C3)[C@H](C)[C@@H](O)CC1=O)[C@H](C)C[C@@H]2OC [tacrolimus]
minimum effective dose (MED): 14 mg/kg
